Values joined by “and” are separate entries in the source; they are usually repeats but may differ in a detail not shown here. Equal entries are not always repeated.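 Tested at 5 concentrations; 48 h exposure; 96-well plates; endpoints linearly interpolated, else capped at highest concentration. GI50: concentration for 50% inhibition of growth.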 Active and inactive are the calls of the source. Cut-off read from the data, not from the text of the source: active = GI50 up to about 1.1 µM and inactive = higher.
What was measured:
Experiment in all cases: inhibition of tumour cell growth, NCI panel, 48 h
[1] = tested on: A498
[2] = tested on: A549
[3] = tested on: ACHN
[4] = tested on: CAKI-1
[5] = tested on: CCRF-CEM
[6] = tested on: COLO 205
[7] = tested on: DU-145
[8] = tested on: EKVX
[9] = tested on: HCT-116
[10] = tested on: HCT-15
[11] = tested on: HL-60
[12] = tested on: HOP-62
[13] = tested on: HOP-92
[14] = tested on: HT-29
[15] = tested on: Hs-578T
[16] = tested on: K562
[17] = tested on: KM12
[18] = tested on: LOX IMVI
[19] = tested on: M14
[20] = tested on: MCF7
[21] = tested on: MDA-MB-231
[22] = tested on: MDA-MB-435
[23] = tested on: MDA-N
[24] = tested on: MOLT-4
[25] = tested on: Malme-3M
[26] = tested on: NCI-H226
[27] = tested on: NCI-H23
[28] = tested on: NCI-H460
[29] = tested on: NCI/ADR-RES
[30] = tested on: OVCAR-3
[31] = tested on: OVCAR-5
[32] = tested on: OVCAR-8
[33] = tested on: PC-3
[34] = tested on: RPMI-8226
[35] = tested on: RXF 393
[36] = tested on: SF-268
[37] = tested on: SF-295
[38] = tested on: SF-539
[39] = tested on: SK-MEL-28
[40] = tested on: SK-MEL-5
[41] = tested on: SK-OV-3
[42] = tested on: SN12C
[43] = tested on: SNB-19
[44] = tested on: SNB-75
[45] = tested on: SR
[46] = tested on: SW-620
[47] = tested on: T47D
[48] = tested on: TK-10
[49] = tested on: U-251
[50] = tested on: UACC-257
[51] = tested on: UACC-62
[52] = tested on: UO-31
[53] = tested on: 786-0
[54] = tested on: BT-549
[55] = tested on: HCC 2998
[56] = tested on: IGROV-1
[57] = tested on: NCI-H522
[58] = tested on: OVCAR-4
[59] = tested on: SK-MEL-2

For CC1=C(C)Cc2c(O)ccc(O)c2C1, the GI50 [1] was 83.9 µM (inactive), the GI50 [2] was 18.7 µM (inactive) and the GI50 [3] was 17.4 µM (inactive). The GI50 [4] was 18.2 µM (inactive), the GI50 [5] was 3.12 µM (inactive) and the GI50 [6] was 20.4 µM (inactive). For the same compound, the GI50 [7] was 20.1 µM (inactive), the GI50 [8] was 14.5 µM (inactive) and the GI50 [9] was 15.9 µM (inactive). For the same compound, the GI50 [10] was 17.5 µM, the GI50 [11] was 5.36 µM (inactive) and the GI50 [12] was 21.5 µM (inactive). The GI50 [13] was 19.7 µM (inactive), the GI50 [14] was 14.1 µM (inactive) and the GI50 [15] was 17.7 µM (inactive). For the same compound, the GI50 [16] was 18.8 µM (inactive), the GI50 [17] was 31.3 µM (inactive) and the GI50 [18] was 19.9 µM (inactive). For the same compound, the GI50 [19] was 16.2 µM (inactive), the GI50 [20] was 19.2 µM (inactive) and the GI50 [21] was 18 µM (inactive). The GI50 [22] was 16.8 µM (inactive), the GI50 [23] was 17 µM (inactive) and the GI50 [24] was 19.3 µM (inactive). For the same compound, the GI50 [25] was 17.5 µM (inactive), the GI50 [26] was 17.4 µM (inactive) and the GI50 [27] was 27.9 µM (inactive). For the same compound, the GI50 [28] was 43.7 µM (inactive), the GI50 [29] was 36.5 µM (inactive) and the GI50 [30] was 20.4 µM (inactive). For the same compound, the GI50 [31] was 20.7 µM (inactive), the GI50 [32] was 16.1 µM (inactive) and the GI50 [33] was 15.2 µM (inactive). For the same compound, the GI50 [34] was 6 µM (inactive), the GI50 [35] was 15.9 µM (inactive) and the GI50 [36] was 15.5 µM (inactive). For the same compound, the GI50 [37] was 47.4 µM (inactive), the GI50 [38] was 20 µM (inactive) and the GI50 [39] was 12 µM (inactive). The GI50 [40] was 14.6 µM (inactive), the GI50 [41] was 76.2 µM (inactive) and the GI50 [42] was 21.8 µM (inactive). The GI50 [43] was > 100 µM (inactive), the GI50 [44] was 16.2 µM (inactive) and the GI50 [45] was 12.6 µM (inactive). The GI50 [46] was 18.3 µM (inactive), the GI50 [47] was 18.5 µM (inactive) and the GI50 [48] was 20.7 µM (inactive). The GI50 [49] was 16.6 µM (inactive), the GI50 [50] was 18.2 µM (inactive) and the GI50 [51] was 16.5 µM (inactive). For the same compound, the GI50 [52] was 16.9 µM (inactive).

NNC(=O)c1c(-c2cccnc2)cnc2ccccc12 was tested, and the GI50 [53] was > 100 µM (inactive), the GI50 [2] was > 100 µM (inactive) and the GI50 [3] was > 100 µM (inactive). For the same compound, the GI50 [54] was > 100 µM (inactive), the GI50 [4] was > 100 µM (inactive) and the GI50 [5] was > 100 µM (inactive). The GI50 [6] was > 100 µM (inactive), the GI50 [7] was > 100 µM (inactive) and the GI50 [8] was > 100 µM (inactive). The GI50 [55] was > 100 µM (inactive), the GI50 [9] was > 100 µM (inactive) and the GI50 [10] was > 100 µM. The GI50 [11] was > 100 µM (inactive), the GI50 [12] was > 100 µM (inactive) and the GI50 [13] was > 100 µM (inactive). For the same compound, the GI50 [14] was > 100 µM (inactive), the GI50 [56] was > 100 µM (inactive) and the GI50 [16] was > 100 µM (inactive). The GI50 [17] was > 100 µM (inactive), the GI50 [19] was > 100 µM (inactive) and the GI50 [20] was > 100 µM (inactive). The GI50 [23] was > 100 µM (inactive), the GI50 [24] was > 100 µM (inactive) and the GI50 [25] was > 100 µM (inactive). The GI50 [26] was > 100 µM (inactive), the GI50 [27] was > 100 µM (inactive) and the GI50 [28] was > 100 µM (inactive). For the same compound, the GI50 [57] was > 100 µM (inactive), the GI50 [29] was > 100 µM (inactive) and the GI50 [30] was > 100 µM (inactive). For the same compound, the GI50 [58] was > 100 µM (inactive), the GI50 [31] was > 100 µM (inactive) and the GI50 [32] was > 100 µM (inactive). The GI50 [33] was > 100 µM (inactive), the GI50 [34] was > 100 µM (inactive) and the GI50 [35] was > 100 µM (inactive). For the same compound, the GI50 [36] was > 100 µM (inactive), the GI50 [37] was > 100 µM (inactive) and the GI50 [38] was > 100 µM (inactive). The GI50 [39] was > 100 µM (inactive), the GI50 [59] was > 100 µM (inactive) and the GI50 [40] was > 100 µM (inactive). For the same compound, the GI50 [41] was 4.02 µM (inactive), the GI50 [42] was > 100 µM (inactive) and the GI50 [43] was > 100 µM (inactive). The GI50 [44] was 45.6 µM (inactive), the GI50 [45] was > 100 µM (inactive) and the GI50 [46] was > 100 µM (inactive). For the same compound, the GI50 [48] was > 100 µM (inactive), the GI50 [49] was > 100 µM (inactive) and the GI50 [50] was > 100 µM (inactive). For the same compound, the GI50 [51] was > 100 µM (inactive) and the GI50 [52] was > 100 µM (inactive).

O=C(Nc1ccc([N+](=O)[O-])cc1)c1ccc([N+](=O)[O-])cc1 was tested, and the GI50 [37] was 85.9 µM (inactive) and 50.2 µM (inactive) and the GI50 [44] was 48.9 µM (inactive) and 70.6 µM (inactive).
